Several values for one entry are separate records, joined by “and”; a condition that tells them apart may be missing. Equal values may be shown once. Read-outs that look alike come from different tables or passages of the source.

The record followed here is patent publication US20120115896A1, “ISOGENIC HUMAN CELL LINES COMPRISING MUTATED CANCER ALLELES AND PROCESS USING THE CELL LINES” (priority 2008, published 2012).

For assay [1], the system named is hTERT-HME1 cells carrying PIK3CA (E545K and H1047R) KI.
Assay [2] deals with hTERT-HME1 cells carrying KRAS (G13D) KI.
Assay [3] has as its system hTERT-HME1 cells carrying BRAF (V600E) KI.
Assay [4] concerns hTERT-HME1 cells carrying EGFR (delE746-A750) KI.
The test system of assay [5] is hTERT-HME1 DKI cells carrying PIK3CA (H1047R) and EGFR (delE746-A750).
Assay [6] relates to HCT 116 colorectal cancer cells and derivative clones (HKh-2, HKe-3, HK2-6, PIK3CA WT/mutant). The assay is described as follows: Viability (ATP assay) of HCT 116 cells and isogenic KRAS / PIK3CA derivative clones. The settings on record: HCT 116, FIG. 8A.
Method: (§1) Results are expressed as percent of viability compared to cells treated with DMSO only ('control') and represent mean±SD of at least three independent observations.
(§2) After serial dilutions, 100 μl of drugs in serum free medium were added to cells with a multichannel pipette. Vehicle and medium-only containing wells were added as controls. Plates were incubated at 37° C. in 5% CO2 for 96 h, after which cell viability was assessed by ATP content using the CellTiter-Glo® Luminescent Assay (Promega Madison, Wis.).
Assay [7] has as its system DLD-1 colorectal cancer cells and derivative clones (DKO-1, DKO-3, DKO-4, PIK3CA WT/mutant). The assay is described as follows: Viability (ATP assay) of DLD-1 cells and isogenic KRAS / PIK3CA derivative clones. To be noted: DLD-1, FIG. 8B.
Method: as §1, §2
Assay [8] deals with hTERT-HME1 cells carrying BRAF (V600E) KI. The assay is described as follows: Drug assay: cell viability by ATP content (96 h), KI versus parental cells; ΔKI pharmarray analysis.
Assay [9] has as its system hTERT-HME1 cells carrying KRAS (G13D) KI. Described as above.
For assay [10], the system named is hTERT-HME1 cells carrying PIK3CA (E545K and H1047R) KI. The assay is described as follows: Drug assay: cell viability by ATP content (96 h) and Hoechst/propidium iodide staining, KI versus parental cells; ΔKI pharmarray analysis.
The test system of assay [11] is hTERT-HME1 DKI cells carrying PIK3CA (H1047R) and EGFR (delE746-A750). The experiment in a line: Drug assay: cell viability by ATP content (96 h), DKI versus parental cells; ΔKI pharmarray analysis.
Assay [12] relates to hTERT-HME1 cells carrying EGFR (delE746-A750) KI. The assay is described as follows: Drug assay: cell viability by ATP content (CellTiter-Glo, 96 h), KI versus parental cells; ΔKI pharmarray analysis. Background: ATP-based viability assays read luminescence as a measure of living cells.

For the compound `CC(C)=CCc1c(O)cc(O)c2c1O[C@H](c1ccc(O)cc1)CC2=O` [8-Prenylnaringenin], the entries for the “ΔKI PIK3CA” value in [1] (Log(M) −3.20) and in assay [1] (Log(M) −3.68) were 0.02 and 0, respectively. The “ΔKI KRAS” value came out at 0.02 in assay [2] (Log(M) −3.20) and 0 in [2] (Log(M) −3.68). Further, the “ΔKI BRAF” value in [3] (Log(M) −3.20) is recorded as 0.02; in assay [3] (Log(M) −3.68) it was 0.88. In addition, the “ΔKI EGFR” value is 0 in assay [4] (Log(M) −3.20) and 1.16 in assay [4] (Log(M) −3.68). Also, the results for the “ΔKI PIK3CA + EGFR” value in assay [5] (Log(M) −3.20) and in assay [5] (Log(M) −3.68) were 0.02 and 1.52, respectively.

For `O=c1cc(-c2ccc(O)cc2)oc2cc(O)cc(O)c12` [Apigenin], the “ΔKI PIK3CA” value in assay [1] (Log(M) −4.40), in assay [1] (Log(M) −4.70) and in [1] (Log(M) −5.00) was 0 throughout. In addition, the “ΔKI KRAS” value in assay [2] (Log(M) −4.40), in [2] (Log(M) −4.70) and in assay [2] (Log(M) −5.00) was 0 each time. In addition, the “ΔKI BRAF” value in [3] (Log(M) −4.40) was −3.18; in [3] (Log(M) −4.70) it was −2.32; in assay [3] (Log(M) −5.00) it was 0. The “ΔKI EGFR” value in assay [4] (Log(M) −4.40), in [4] (Log(M) −4.70) and in assay [4] (Log(M) −5.00) was 0 throughout. In addition, the “ΔKI PIK3CA + EGFR” value in assay [5] (Log(M) −4.40), in assay [5] (Log(M) −4.70) and in assay [5] (Log(M) −5.00) was 0 each time.

On to `O=C(NOCC1CC1)c1ccc(F)c(F)c1Nc1ccc(I)cc1Cl` [CI-1040, CI-1040 (PD 184352)], for which the “effect on PIK3CA WT/− cells versus isogenic PIK3CA mutant cells” value in assay [6] and in assay [7] was “affects to a greater extent” each time. Further, the “effect on PIK3CA mutant cells in combination with everolimus” value in [6] (with everolimus 10^−7 M) and in assay [7] (with everolimus 10^−7 M) was “effects comparable to those achievable by the MEK inhibitor alone” throughout.

`C[C@]12CC[C@@H]3c4ccc(O)cc4C[C@@H](CCCCCCCCC[S+]([O-])CCCC(F)(F)C(F)(F)F)[C@H]3[C@@H]1CC[C@@H]2O` (stereo partly shown) [Fulvestrant]: the “ΔKI PIK3CA + EGFR” value in assay [5] (Log(M) −4.05), in assay [5] (Log(M) −4.52) and in [5] (Log(M) −5.00) was 0 each time.

Take `O=c1cc(N2CCOCC2)oc2c(-c3ccccc3)cccc12` [LY294002, LY 294002]: in assay [1] (Log(M) −5.10), the “ΔKI PIK3CA” value was 3.62.

As to `CCN(CC)CCNC(=O)c1cc(Cl)c(N)cc1OC` [Metoclopramide], the “ΔKI PIK3CA” value in assay [1] (Log(M) −3.10), in assay [1] (Log(M) −3.35), in assay [1] (Log(M) −3.57), in [1] (Log(M) −3.70), in assay [1] (Log(M) −3.82) and in [1] (Log(M) −4.05) was 0 each time. In addition, the “ΔKI PIK3CA” value in assay [1] (Log(M) −4.30) and in assay [1] (Log(M) −4.52) was 0 throughout. Besides, the “ΔKI KRAS” value in [2] (Log(M) −3.10), in [2] (Log(M) −3.35), in assay [2] (Log(M) −3.57), in assay [2] (Log(M) −3.70), in [2] (Log(M) −3.82) and in assay [2] (Log(M) −4.05) was 0 in each case. Moreover, the “ΔKI KRAS” value in assay [2] (Log(M) −4.30) and in [2] (Log(M) −4.52) was 0 throughout. The “ΔKI BRAF” value in [3] (Log(M) −3.10) is −4.48; in [3] (Log(M) −3.35) it was 0; in assay [3] (Log(M) −3.57), 0; in [3] (Log(M) −3.70), −0.66; in assay [3] (Log(M) −3.82), 0; in assay [3] (Log(M) −4.05), 0. Besides, the “ΔKI BRAF” value in [3] (Log(M) −4.30) and in assay [3] (Log(M) −4.52) was 0 in each case. The “ΔKI EGFR” value turned out to be 0 in assay [4] (Log(M) −3.10); 9.94 in [4] (Log(M) −3.35); 0 in assay [4] (Log(M) −3.57); 0 in [4] (Log(M) −3.70); 0 in assay [4] (Log(M) −3.82); 0 in assay [4] (Log(M) −4.05). For the same compound, the “ΔKI EGFR” value in assay [4] (Log(M) −4.30) and in assay [4] (Log(M) −4.52) was 0 in each case. The “ΔKI PIK3CA + EGFR” value in assay [5] (Log(M) −3.10) was found to be 2.8; in assay [5] (Log(M) −3.35) it was 0; in [5] (Log(M) −3.57), 0; in [5] (Log(M) −3.70) it was 0.2; in assay [5] (Log(M) −3.82), 0; in [5] (Log(M) −4.05) it was 0. Also, the “ΔKI PIK3CA + EGFR” value in [5] (Log(M) −4.30) and in assay [5] (Log(M) −4.52) was 0 each time.

Consider `O=C1C[C@@H](c2ccc(O)cc2)Oc2cc(O)cc(O)c21` [Naringenin], for which the “ΔKI PIK3CA” value in [1] (Log(M) −3.05), in assay [1] (Log(M) −3.52) and in assay [1] (Log(M) −4.00) was 0 throughout. In addition, the “ΔKI KRAS” value in assay [2] (Log(M) −3.05), in [2] (Log(M) −3.52) and in [2] (Log(M) −4.00) was 0 each time. Also, the “ΔKI BRAF” value is given as −0.08 in assay [3] (Log(M) −3.05), 0 in assay [3] (Log(M) −3.52) and −1.5 in [3] (Log(M) −4.00). Moreover, the “ΔKI EGFR” value in assay [4] (Log(M) −3.05), in [4] (Log(M) −3.52) and in [4] (Log(M) −4.00) was 0 throughout. Further, the “ΔKI PIK3CA + EGFR” value in assay [5] (Log(M) −3.05), in assay [5] (Log(M) −3.52) and in assay [5] (Log(M) −4.00) was 0 in each case.

Consider `Oc1cccc(-c2nc(N3CCOCC3)c3oc4ncccc4c3n2)c1` [PI-103], for which the “ΔKI PIK3CA” value in assay [1] (Log(M) −6.00), in [1] (Log(M) −7.00) and in assay [1] (Log(M) −8.00) was 0 in each case. Moreover, the “ΔKI KRAS” value in [2] (Log(M) −6.00), in assay [2] (Log(M) −7.00) and in [2] (Log(M) −8.00) was 0 in each case. The “ΔKI BRAF” value in assay [3] (Log(M) −6.00), in assay [3] (Log(M) −7.00) and in assay [3] (Log(M) −8.00) was 0 each time. Moreover, the “ΔKI EGFR” value came out at 3.9 in assay [4] (Log(M) −6.00), 0 in assay [4] (Log(M) −7.00) and 0 in [4] (Log(M) −8.00). In addition, the “ΔKI PIK3CA + EGFR” value in assay [5] (Log(M) −6.00), in assay [5] (Log(M) −7.00) and in assay [5] (Log(M) −8.00) was 0 in each case.

In the case of `COc1cc(O)c2c(c1)O[C@H](c1ccc(O)cc1)CC2=O` [Sakuranetin], the “ΔKI PIK3CA” value came to 0 in assay [1] (Log(M) −3.05) and 2.4 in assay [1] (Log(M) −3.52). In addition, the “ΔKI KRAS” value in assay [2] (Log(M) −3.05) and in [2] (Log(M) −3.52) was 0 each time. The results for the “ΔKI BRAF” value in [3] (Log(M) −3.05) and in assay [3] (Log(M) −3.52) were 0.02 and 2.24, respectively. Besides, the “ΔKI EGFR” value in [4] (Log(M) −3.05) was 0.02; in assay [4] (Log(M) −3.52), 0.78. The “ΔKI PIK3CA + EGFR” value came out at 0.04 in assay [5] (Log(M) −3.05) and 1.46 in assay [5] (Log(M) −3.52).

Turning to `CO[C@H]1C[C@@H]2CC[C@@H](C)[C@@](O)(O2)C(=O)C(=O)N2CCCC[C@H]2C(=O)O[C@H]([C@H](C)C[C@@H]2CC[C@@H](O)[C@H](OC)C2)CC(=O)[C@H](C)/C=C(\C)[C@@H](O)[C@@H](OC)C(=O)[C@H](C)C[C@H](C)/C=C/C=C/C=C/1C` [rapamycin, Rapamycin], the “ΔKI PIK3CA + EGFR” value in [5] (Log(M) −5.40) turned out to be 1.22; in [5] (Log(M) −6.40) it was 0; in assay [5] (Log(M) −7.40) it was 1.6; in assay [5] (Log(M) −8.40), 0; in assay [5] (Log(M) −9.40), 0.66; in assay [5] (Log(M) −10.40) it was 0.

Turning to Sodium Phenylbutyrate, the “ΔKI BRAF” value in assay [8] (Log(M) −1.97), in assay [8] (Log(M) −2.44) and in assay [8] (Log(M) −2.92) was 0 throughout. Further, the “ΔKI KRAS” value in assay [9] (Log(M) −1.97), in [9] (Log(M) −2.44) and in [9] (Log(M) −2.92) was 0 each time. Besides, the “ΔKI PIK3CA” value in [10] (Log(M) −1.97), in [10] (Log(M) −2.44) and in assay [10] (Log(M) −2.92) was 0 each time. Also, the “ΔKI PIK3CA + EGFR” value in [11] (Log(M) −1.97), in assay [11] (Log(M) −2.44) and in assay [11] (Log(M) −2.92) was 0 each time. The “ΔKI EGFR” value in assay [12] (Log(M) −1.97), in assay [12] (Log(M) −2.44) and in assay [12] (Log(M) −2.92) was 0 throughout.

On to Tamoxifene Citrate, for which the “ΔKI BRAF” value in assay [8], in assay [8] (Log(M) −4.75) and in [8] (Log(M) −5.35) was 0 throughout. For the same compound, the “ΔKI KRAS” value in assay [9], in assay [9] (Log(M) −4.75) and in assay [9] (Log(M) −5.35) was 0 in each case. Besides, the “ΔKI PIK3CA” value in [10] (Log(M) −4.75) is on record as 0; in assay [10] (Log(M) −5.35), 0.9. Further, the “ΔKI PIK3CA + EGFR” value in [11] was 0.96 and 0.78; in [11] (Log(M) −4.75) it was 0; in [11] (Log(M) −5.35) it was −0.92. Moreover, the “ΔKI EGFR” value in assay [12] is 0; in [12] (Log(M) −4.75), 0; in [12] (Log(M) −5.35) it was −0.54.
